Assay results: US6761911B2 (The United States of America as represented by the …, priority 1999, dated 2004)

What was measured:
E. coli = test: Intraruminal sodium chlorate in cattle: ruminal and fecal E. coli viable cell counts on MacConkey agar; type: in vivo; details: for Mean ± SD (n = 2) fecal EC concentration / Mean ± SD (n = 2) ruminal EC concentration: treated (30 mM sodium chlorate intraruminally)
Description: Concentrations of E. coli in the ruminal contents and in feces collected from the test animals were determined by viable cell counts on MacConkey agar plates.

culturable anaerobes = test: Most probable number of culturable anaerobes in ruminal fluid incubated with chlorate; type: cell-based; details: 5 mM sodium chlorate, anaerobic, 39° C.

[O-][Cl+2]([O-])O [chlorate, sodium chlorate]
decrease in ruminal E. coli concentration (E. coli; fasted and non-fasted, 30 mM sodium chlorate, after 24 hours (compared with 10 hours)): significantly greater
change of ruminal E. coli concentrations from prechlorate levels (E. coli; fasted and non-fasted, 30 mM sodium chlorate, by 10 hours after chlorate administration): decreased only slightly
Mean ± SD (n = 2) fecal EC concentration (E. coli; fasted, 0 h post treatment): 5.29 ± 0.24 log base 10 CFU/g
Mean ± SD (n = 2) ruminal EC concentration (E. coli; fasted, 0 h post treatment): 3.62 ± 2.29 log base 10 CFU/g
Mean ± SD (n = 2) ruminal EC concentration (E. coli; fasted, 10 h post treatment): 3.27 ± 3.21 log base 10 CFU/g
Mean ± SD (n = 2) fecal EC concentration (E. coli; fasted, 24 h post treatment): 2.33 ± 1.24 log base 10 CFU/g
Mean ± SD (n = 2) ruminal EC concentration (E. coli; fasted, 24 h post treatment): 2.40 ± 0.20 log base 10 CFU/g
Mean ± SD (n = 2) fecal EC concentration (E. coli; nonfasted, 0 h post treatment): 5.19 ± 1.68 log base 10 CFU/g
Mean ± SD (n = 2) ruminal EC concentration (E. coli; nonfasted, 0 h post treatment): 3.66 ± 1.76 log base 10 CFU/g
Mean ± SD (n = 2) ruminal EC concentration (E. coli; nonfasted, 10 h post treatment): 2.22 ± 3.14 log base 10 CFU/g
Mean ± SD (n = 2) fecal EC concentration (E. coli; nonfasted, 24 h post treatment): 2.65 ± 1.91 log base 10 CFU/g
Mean ± SD (n = 2) ruminal EC concentration (E. coli; nonfasted, 24 h post treatment): 2.28 ± 1.38 log base 10 CFU/g
effect on the most probable number of culturable anaerobes (culturable anaerobes): little effect
